From PubChem BioAssay (NCI)
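How tested: cells in 96-well plates exposed to compound for 48 hours at five concentrations. GI50 marks 50% less growth. TGI: total growth inhibition.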

How the values were obtained:
Assay in all cases: inhibition of tumour cell growth, NCI panel, 48 h
SNB-75 CNS = system: SNB-75 CNS
T-47D breast = system: T-47D breast
MCF7 breast = system: MCF7 breast
LOX IMVI melanoma = system: LOX IMVI melanoma
SN12C renal = system: SN12C renal
OVCAR-4 ovarian = system: OVCAR-4 ovarian
UACC-257 melanoma = system: UACC-257 melanoma
SK-MEL-2 melanoma = system: SK-MEL-2 melanoma
MOLT-4 leukemia = system: MOLT-4 leukemia
HOP-92 NSCLC = system: HOP-92 NSCLC
OVCAR-3 ovarian = system: OVCAR-3 ovarian
SF-539 CNS = system: SF-539 CNS
MDA-MB-435 = system: MDA-MB-435
786-0 renal = system: 786-0 renal
DU-145 prostate = system: DU-145 prostate
CAKI-1 renal = system: CAKI-1 renal
HOP-62 NSCLC = system: HOP-62 NSCLC
HCC-2998 colon = system: HCC-2998 colon
A549 NSCLC = system: A549 NSCLC
HCT-15 colon = system: HCT-15 colon
SK-OV-3 ovarian = system: SK-OV-3 ovarian
HS 578T breast = system: HS 578T breast
SW-620 colon = system: SW-620 colon
A498 renal = system: A498 renal
U251 CNS = system: U251 CNS
NCI-H460 lung = system: NCI-H460 lung
MDA-MB-231 breast = system: MDA-MB-231 breast
HCT-116 colon = system: HCT-116 colon
SF-268 CNS = system: SF-268 CNS
PC-3 prostate = system: PC-3 prostate
NCI-H226 lung = system: NCI-H226 lung
SNB-19 CNS = system: SNB-19 CNS
OVCAR-8 ovarian = system: OVCAR-8 ovarian
EKVX NSCLC = system: EKVX NSCLC
UACC-62 melanoma = system: UACC-62 melanoma
KM12 colon = system: KM12 colon
SK-MEL-28 melanoma = system: SK-MEL-28 melanoma
NCI-H23 lung = system: NCI-H23 lung
HT29 colon = system: HT29 colon
IGROV1 ovarian = system: IGROV1 ovarian
RPMI-8226 leukemia = system: RPMI-8226 leukemia
COLO 205 colon = system: COLO 205 colon
M14 melanoma = system: M14 melanoma
RXF 393 renal = system: RXF 393 renal
UO-31 renal = system: UO-31 renal
TK-10 renal = system: TK-10 renal
BT-549 breast = system: BT-549 breast
CCRF-CEM leukemia = system: CCRF-CEM leukemia
ACHN renal = system: ACHN renal
HL-60(TB) leukemia = system: HL-60(TB) leukemia
NCI/ADR-RES ovarian = system: NCI/ADR-RES ovarian
K-562 leukemia = system: K-562 leukemia
SF-295 CNS = system: SF-295 CNS
SR leukemia = system: SR leukemia
OVCAR-5 ovarian = system: OVCAR-5 ovarian
SK-MEL-5 melanoma = system: SK-MEL-5 melanoma
MALME-3M melanoma = system: MALME-3M melanoma

In the case of `O=C(Nc1cc(Cl)cc(Cl)c1)Nc1nc2ccc([N+](=O)[O-])cc2s1`, the GI50 (SNB-75 CNS) was 1.04 µM, the TGI (SNB-75 CNS) was 3.83 µM and the GI50 (T-47D breast) was 0.571 µM. For the same molecule, the TGI (T-47D breast) was 6.15 µM, the GI50 (MCF7 breast) was 0.717 µM and the TGI (MCF7 breast) was greater than 100 µM. For the same molecule, the GI50 (LOX IMVI melanoma) was 0.839 µM, the TGI (LOX IMVI melanoma) was 2.44 µM and the GI50 (SN12C renal) was 0.752 µM. It also gave a TGI (SN12C renal) of 5.62 µM, a GI50 (OVCAR-4 ovarian) of 0.583 µM and a TGI (OVCAR-4 ovarian) greater than 100 µM. The GI50 (UACC-257 melanoma) was 0.95 µM, the TGI (UACC-257 melanoma) was 4.84 µM and the GI50 (SK-MEL-2 melanoma) was 0.771 µM. For the same molecule, the TGI (SK-MEL-2 melanoma) was 3.83 µM, the GI50 (MOLT-4 leukemia) was 0.685 µM and the TGI (MOLT-4 leukemia) was 3.23 µM. It also gave a GI50 (HOP-92 NSCLC) of 0.212 µM, a TGI (HOP-92 NSCLC) of 0.67 µM and a GI50 (OVCAR-3 ovarian) of 0.722 µM. The TGI (OVCAR-3 ovarian) was 8.2 µM, the GI50 (SF-539 CNS) was 1.18 µM and the TGI (SF-539 CNS) was 5.43 µM. It also gave a GI50 (MDA-MB-435) of 1.51 µM, a TGI (MDA-MB-435) of 6.77 µM and a GI50 (786-0 renal) of 1.47 µM. For the same molecule, the TGI (786-0 renal) was 5.86 µM, the GI50 (DU-145 prostate) was 1.72 µM and the TGI (DU-145 prostate) was greater than 100 µM. The GI50 (CAKI-1 renal) was 0.992 µM, the TGI (CAKI-1 renal) was 8.47 µM and the GI50 (HOP-62 NSCLC) was 1.78 µM. For the same molecule, the TGI (HOP-62 NSCLC) was 5.5 µM, the GI50 (HCC-2998 colon) was 0.503 µM and the TGI (HCC-2998 colon) was 4.07 µM. It also gave a GI50 (A549 NSCLC) of 1.7 µM, a TGI (A549 NSCLC) greater than 100 µM and a GI50 (HCT-15 colon) of 0.769 µM. It also gave a TGI (HCT-15 colon) greater than 100 µM, a GI50 (SK-OV-3 ovarian) of 1.45 µM and a TGI (SK-OV-3 ovarian) of 5.6 µM. It also gave a GI50 (HS 578T breast) of 0.999 µM, a TGI (HS 578T breast) of 4.72 µM and a GI50 (SW-620 colon) of 1.63 µM. For the same molecule, the TGI (SW-620 colon) was 85.7 µM, the GI50 (A498 renal) was 0.287 µM and the TGI (A498 renal) was 1.04 µM. The GI50 (U251 CNS) was 0.909 µM, the TGI (U251 CNS) was greater than 100 µM and the GI50 (NCI-H460 lung) was 1.48 µM. For the same molecule, the TGI (NCI-H460 lung) was greater than 100 µM, the GI50 (MDA-MB-231 breast) was 1.19 µM and the TGI (MDA-MB-231 breast) was 4.12 µM. It also gave a GI50 (HCT-116 colon) of 0.57 µM, a TGI (HCT-116 colon) of 4.76 µM and a GI50 (SF-268 CNS) of 1.61 µM. It also gave a TGI (SF-268 CNS) greater than 100 µM, a GI50 (PC-3 prostate) of 0.568 µM and a TGI (PC-3 prostate) greater than 100 µM. For the same molecule, the GI50 (NCI-H226 lung) was 1.04 µM, the TGI (NCI-H226 lung) was 3.15 µM and the GI50 (SNB-19 CNS) was 1.19 µM. It also gave a TGI (SNB-19 CNS) of 25.7 µM, a GI50 (OVCAR-8 ovarian) of 1.74 µM and a TGI (OVCAR-8 ovarian) greater than 100 µM. The GI50 (EKVX NSCLC) was 1.14 µM, the TGI (EKVX NSCLC) was 7.63 µM and the GI50 (UACC-62 melanoma) was 0.569 µM. For the same molecule, the TGI (UACC-62 melanoma) was 2.21 µM, the GI50 (KM12 colon) was 1.16 µM and the TGI (KM12 colon) was 7.33 µM. The GI50 (SK-MEL-28 melanoma) was 1.03 µM, the TGI (SK-MEL-28 melanoma) was 3.58 µM and the GI50 (NCI-H23 lung) was 0.378 µM. For the same molecule, the TGI (NCI-H23 lung) was 2.31 µM, the GI50 (HT29 colon) was 1.61 µM and the TGI (HT29 colon) was greater than 100 µM. For the same molecule, the GI50 (IGROV1 ovarian) was 1.77 µM, the TGI (IGROV1 ovarian) was 84.5 µM and the GI50 (RPMI-8226 leukemia) was 0.376 µM. It also gave a TGI (RPMI-8226 leukemia) of 1.59 µM, a GI50 (COLO 205 colon) of 0.646 µM and a TGI (COLO 205 colon) of 2.21 µM. It also gave a GI50 (M14 melanoma) of 1.88 µM, a TGI (M14 melanoma) of 5.79 µM and a GI50 (RXF 393 renal) of 0.558 µM. It also gave a TGI (RXF 393 renal) of 2.17 µM, a GI50 (UO-31 renal) of 0.708 µM and a TGI (UO-31 renal) of 2.8 µM. For the same molecule, the GI50 (TK-10 renal) was 2.21 µM, the TGI (TK-10 renal) was 13.3 µM and the GI50 (BT-549 breast) was 1.68 µM. For the same molecule, the TGI (BT-549 breast) was 4.66 µM, the GI50 (CCRF-CEM leukemia) was 0.429 µM and the TGI (CCRF-CEM leukemia) was 3.88 µM. For the same molecule, the GI50 (ACHN renal) was 1.37 µM, the TGI (ACHN renal) was 21.8 µM and the GI50 (HL-60(TB) leukemia) was 0.714 µM. The TGI (HL-60(TB) leukemia) was 2.86 µM, the GI50 (NCI/ADR-RES ovarian) was 0.8 µM and the TGI (NCI/ADR-RES ovarian) was 6.2 µM. It also gave a GI50 (K-562 leukemia) of 0.504 µM, a TGI (K-562 leukemia) greater than 24.3 µM and a GI50 (SF-295 CNS) of 0.524 µM. The TGI (SF-295 CNS) was 1.92 µM, the GI50 (SR leukemia) was 0.32 µM and the TGI (SR leukemia) was 2.1 µM. It also gave a GI50 (OVCAR-5 ovarian) of 2.65 µM, a TGI (OVCAR-5 ovarian) greater than 100 µM and a GI50 (SK-MEL-5 melanoma) of 0.446 µM. It also gave a TGI (SK-MEL-5 melanoma) of 1.66 µM, a GI50 (MALME-3M melanoma) of 0.518 µM and a TGI (MALME-3M melanoma) of 5.72 µM.
